Reference: a compilation of properties of binary mixtures (doi:10.1016/j.molliq.2016.04.040)

Experiment: xn = mol fraction of the nth substance listed
Conditions: 100 kPa

CC(=O)[O-].CCC[NH3+] + O
speed of sound [m/s]
Conditions	293.15 K	298.15 K	303.15 K	308.15 K	313.15 K	318.15 K	323.15 K	328.15 K	333.15 K
x2 = 0	1504.2	1490.7	1476.6	1461.9	1447.5	1433.3	–	1405.6	1391.1
x2 = 0.05	1506.6	1493.5	1478.6	1464	1449.1	1434.5	1420.4	1406.6	1392.6
x2 = 0.0978	1509.6	1495.7	–	1466.8	1451.7	1436.1	–	1407.6	1393.3
x2 = 0.1978	–	–	1485.6	–	–	1439.8	1424.3	–	1395.1
x2 = 0.3095	–	1506.4	1491.6	1474.8	1459.3	–	1428	1413.1	1397.7
x2 = 0.3891	1527.5	1511.4	1495.3	1479	1462.8	1446.7	1430.3	1414.7	1399.2
x2 = 0.4931	–	1517	1500.3	–	–	–	1433.2	1417.5	–
x2 = 0.599	1539.9	1521.9	1505.3	1488.3	1471.5	–	1436.8	1420.2	1402.8
x2 = 0.7001	1545.8	1527.3	1510	1492	1474.8	1457.5	1439.8	1422.2	1405.1
x2 = 0.7998	1552.5	–	–	1497.2	1478.8	1461.4	–	1424.9	1407.8
x2 = 0.891	–	1538.6	1519.6	1501.1	1482.7	1463.9	–	–	1409

CCC[NH3+].O=C[O-] + O
speed of sound [m/s]
Conditions	293.15 K	298.15 K	303.15 K	308.15 K	313.15 K	318.15 K	323.15 K	328.15 K	333.15 K
x2 = 0	1552	1540.7	1530.2	–	1509.5	1499.2	1489.1	1479	1469
x2 = 0.0505	1557.1	1546.6	1536.1	1525.7	1515.4	–	1495.1	1485	1474.9
x2 = 0.1036	1565.1	1554.7	1544.2	1533.9	1523.7	1513.5	1503.4	1493.4	1483.2
x2 = 0.2456	1588.7	1578.5	1568.5	–	1548.1	1538	1528	–	–
x2 = 0.2838	–	1585.9	1575.7	1565.6	–	1545.4	–	1525.4	–
x2 = 0.429	1615.5	1605.7	–	–	1575.8	1566	1556	1546.1	1536
x2 = 0.5184	1632.4	–	1612.8	1603	1593	1583.1	1573.2	1563.3	–
x2 = 0.6064	–	–	1635.4	1625.7	1616	1606.2	1596.4	–	1576.6
x2 = 0.6994	1687.5	1678.4	1669.2	1659.9	1650.5	1641	1631.5	1621.8	1611.9
x2 = 0.8008	1727.2	1719.4	1711.3	–	1694.3	–	1676.4	1666.8	1657.3
x2 = 0.9026	1730	1725.8	–	1716.1	1710.7	1704.7	1698.3	1691.5	1684.3
